In patent publication US8575145B2, “Triazolopyridine compounds as PIM kinase inhibitors” (Array BioPharma Inc., priority 2008, dated 2013):
Structures can show the parent of a compound that is named as a salt. Where two headings read alike, the source gives them in different places.

How the values were obtained:
recombinant rat PIM-3 = recombinant rat PIM-3 (Rattus norvegicus (Rat), UniProt O70444); assay: PIM-3 Enzyme Assay; details: 30 μM ATP, 0.5 nM PIM-3
[1] = biological target: GST-tagged recombinant full-length human PIM-2 (Homo sapiens (Human), UniProt Q9P1W9); assay: PIM-2 Enzyme Assay
Method: The amount of radiolabeled product is then measured by liquid scintillation counting. The final buffer conditions were as follows: 20 mM K^+MOPS, pH 7.4, 10 mM MgCl2, 0.005% Tween-20, 1 mM DTT. […] Incubations were carried out for 60 min at 22° C. and quenched with 75 μL of 200 mM H3PO4, filtered through a Whatman P81 plate and washed (1×200 μL and 5×100 μL ) with 200 mM H3PO4. Liquid scintillation cocktail (50 μL ) was then added per well, and the plate was counted for 30 s/well using a TopCount NXT.
One-μL aliquots of these were then transferred to the assay mixtures above to give a final concentration of DMSO of 2%. […] For each plate, percent of control (POC) values were calculated for each well. IC50's were estimated from the POC's using a standard 4-parameter logistic model. The IC50 is defined as the concentration of inhibitor at which the POC equals 50 for the fitted curve.

PIM-1 = PIM-1 (Homo sapiens (Human), UniProt P11309); assay: PIM-1 Enzyme Assay; type: biochemical
Method in brief: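 Radiometric kinase assay in 20 mM K+MOPS pH 7.4, 10 mM MgCl2, 0.005% Tween-20, 1 mM DTT, 2% DMSO final; 60 min at 22° C, stopped with H3PO4, product captured on P81 filter and counted by scintillation. IC50 from 4-parameter logistic fit of percent of control.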

[2] = read-out: PIM-3 IC50, dihydrochloride
[3] = read-out: PIM-2 IC50, 4 μM ATP, […] PIM-2, dihydrochloride
[4] = 35 μM ATP, 0.25 nM PIM-1, dihydrochloride
[5] = read-out: PIM-2 IC50, 4 μM ATP, […] PIM-2

PIM-1, sequence (P11309 whole entry, species assumed): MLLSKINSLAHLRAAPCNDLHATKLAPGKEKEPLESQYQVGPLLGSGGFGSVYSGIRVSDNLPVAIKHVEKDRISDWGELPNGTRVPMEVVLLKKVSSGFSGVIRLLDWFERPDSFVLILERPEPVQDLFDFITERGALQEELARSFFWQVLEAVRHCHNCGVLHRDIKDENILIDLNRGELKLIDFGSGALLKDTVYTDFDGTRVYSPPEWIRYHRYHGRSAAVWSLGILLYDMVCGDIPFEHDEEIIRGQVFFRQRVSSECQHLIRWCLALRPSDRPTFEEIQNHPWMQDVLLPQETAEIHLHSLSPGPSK
GST-tagged recombinant full-length human PIM-2, sequence (Q9P1W9 whole entry): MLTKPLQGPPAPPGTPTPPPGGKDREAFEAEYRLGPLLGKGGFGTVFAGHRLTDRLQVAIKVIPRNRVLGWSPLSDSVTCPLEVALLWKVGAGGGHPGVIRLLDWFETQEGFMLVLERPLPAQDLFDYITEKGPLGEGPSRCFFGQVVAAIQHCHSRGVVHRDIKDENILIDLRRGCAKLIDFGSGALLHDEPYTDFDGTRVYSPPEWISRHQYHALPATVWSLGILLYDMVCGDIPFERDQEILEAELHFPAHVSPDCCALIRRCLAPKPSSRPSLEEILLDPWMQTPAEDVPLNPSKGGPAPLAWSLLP

Row | Compound | IC50 (recombinant rat PIM-3; read-out: PIM-3 IC50) | IC50 [1, 5] | IC50 (PIM-1; 35 μM ATP, 0.25 nM PIM-1) | further results
1 | Cc1ccc2nnc(-c3ccc4cccc(OC5CCNCCC5F)c4n3)n2c1 (single isomer, unassigned) [Example 99, 8-((trans)-5-fluoroazepan-4-yloxy)-2-(6-methyl-[1,2,4]triazolo[4,3-a]pyridin-3-yl)quinoline dihydrochloride] | – | – | – | IC50 (recombinant rat PIM-3; [2]): 39.7 nM; IC50 [1, 3]: 1000 nM; IC50 (PIM-1; [4]): 17.4 nM
2 | c1cc(OCCC2CCCCN2)c2nc(-c3nnc4ccccn34)ccc2c1 (stereo not drawn) [Example 15, 2-([1,2,4]Triazolo[4,3-a]pyridin-3-yl)-8-(2-(piperidin-2-yl)ethoxy)quinoline] | 102 nM | 4220 nM | 16 nM | –
3 | c1cc(OC2CCCNCC2)c2nc(-c3nnc4ccccn34)ccc2c1 (single isomer, unassigned) [Example 128, 2-([1,2,4]triazolo[4,3-a]pyridin-3-yl)-8-(azepan-4-yloxy)quinoline] | 79.4 nM | 1000 nM | 19.1 nM | –
4 | OCC1(COc2cccc3ccc(-c4nnc5ccccn45)nc23)CC1 [Example 22, (1-((2-([1,2,4]triazolo[4,3-a]pyridin-3-yl)quinolin-8-yloxy)methyl)cyclopropyl)methanol] | 25 nM | 501 nM | 5 nM | –
5 | F[C@H]1CNCC[C@@H]1Oc1cccc2ccc(-c3nnc4ccccn34)nc12 (relative stereo) [Example 25, 2-([1,2,4]triazolo[4,3-a]pyridin-3-yl)-8-((trans)-3-fluoropiperidin-4-yloxy)quinoline] | 20 nM | 686 nM | 4 nM | –
6 | CC1(COc2cccc3ccc(-c4nnc5ccccn45)nc23)CCN(CCO)CC1 [Example 86, dihydrochloride] | 10 nM | – | 3 nM | IC50 ([1]; read-out: PIM-2 IC50): 142 nM
7 | CN(C)C(=O)[C@@H]1C[C@@H](Oc2cccc3ccc(-c4nnc5ccccn45)nc23)CCN1 [Example 54, (2S,4S)-4-(2-([1,2,4]triazolo[4,3-a]pyridin-3-yl)quinolin-8-yloxy)-N,N-dimethylpiperidine-2-carboxamide dihydrochloride] | 465 nM | 10000 nM | 178 nM | –
8 | COC1(COc2cccc3ccc(-c4nnc5ccccn45)nc23)CCNCC1 [Example 73, 2-([1,2,4]triazolo[4,3-a]pyridin-3-yl)-8-((4-methoxypiperidin-4-yl)methoxy)quinoline bis(trifluoroacetate)] | 5 nM | 79 nM | – | IC50 (PIM-1): 0.96 nM
9 | CC(C)(CO)COc1cccc2ccc(-c3nnc4cc(CN)ccn34)nc12 [Example 19, 3-(2-(7-(aminomethyl)-[1,2,4]triazolo[4,3-a]pyridin-3-yl)quinolin-8-yloxy)-2,2-dimethylpropan-1-ol] | 2 nM | 17 nM | 0.7 nM | –
10 | c1cc(O[C@H]2CCNC2)c2nc(-c3nnc4ccccn34)ccc2c1 [Example 12, (S)-2-([1,2,4]Triazolo[4,3-a]pyridin-3-yl)-8-(pyrrolidin-3-yloxy)quinoline] | 77 nM | 4910 nM | 30 nM | –
11 | FC1CCNCCC1Oc1cccc2ccc(-c3nnc4ccccn34)nc12 (single isomer, unassigned) [Example 49, 2-([1,2,4]triazolo[4,3-a]pyridin-3-yl)-8-(5-fluoroazepan-4-yloxy)quinoline dihydrochloride] | – | – | 0.92 nM | IC50 (recombinant rat PIM-3; PIM-3 IC50 (nM)): 2 nM; IC50 ([1]; PIM-2 IC50 (nM), 4 μM ATP, […] PIM-2): 100 nM
12 | O[C@H]1CC[C@H](Nc2cccc3ccc(-c4nnc5ccccn45)nc23)CC1 [Example 3, (trans)-4-(2-([1,2,4]Triazolo[4,3-a]pyridin-3-yl)quinolin-8-ylamino)cyclohexanol] | 25 nM | 807 nM | 3 nM | –
13 | FC1(COc2cccc3ccc(-c4nnc5ccccn45)nc23)CCNCC1 [Example 66, 2-([1,2,4]triazolo[4,3-a]pyridin-3-yl)-8-((4-fluoropiperidin-4-yl)methoxy)quinoline dihydrochloride] | 3 nM | – | – | IC50 ([1]; read-out: PIM-2 IC50): 52 nM; IC50 (PIM-1): 0.8 nM
14 | CC(C)CCN(CCCN)c1cccc2ccc(-c3nnc4ccccn34)nc12 [Example 8, N1-(2-([1,2,4]Triazolo[4,3-a]pyridin-3-yl)quinolin-8-yl)-N1-isopentylpropane-1,3-diamine] | 93 nM | 5570 nM | 16 nM | –
15 | OC1(COc2cccc3ccc(-c4nnc5ccccn45)nc23)CCN(Cc2ccccc2)CC1 [Example 71, 4-((2-([1,2,4]triazolo[4,3-a]pyridin-3-yl)quinolin-8-yloxy)methyl)-1-benzylpiperidin-4-ol] | 112 nM | 10000 nM | 16 nM | –
16 | c1cc(N[C@@H]2CCNC2)c2nc(-c3nnc4ccccn34)ccc2c1 [Example 5, (R)-2-([1,2,4]Triazolo[4,3-a]pyridin-3-yl)-N-(pyrrolidin-3-yl)quinolin-8-amine] | 20 nM | 2020 nM | 5 nM | –
17 | CC(C)(COc1cc(F)cc2ccc(-c3nnc4ccccn34)nc12)[C@@H](O)CO [Example 112, (R)-4-(2-([1,2,4]triazolo[4,3-a]pyridin-3-yl)-6-fluoroquinolin-8-yloxy)-3,3-dimethylbutane-1,2-diol dihydrochloride] | 10.1 nM | 300 nM | 3.3 nM | –
18 | c1cc(OC2CCCNCC2)c2nc(-c3nnc4ccccn34)ccc2c1 (stereo not drawn) [Example 52, 2-([1,2,4]triazolo[4,3-a]pyridin-3-yl)-8-(azepan-4-yloxy)quinoline dihydrochloride] | – | – | – | IC50 (recombinant rat PIM-3; [2]): 4 nM; IC50 [1, 3]: 110 nM; IC50 (PIM-1; [4]): 2 nM
19 | Cc1ccc2nnc(-c3ccc4cccc(OC5CCNCCC5F)c4n3)n2c1 (single isomer, unassigned) [Example 100, 8-((trans)-5-fluoroazepan-4-yloxy)-2-(6-methyl-[1,2,4]triazolo[4,3-a]pyridin-3-yl)quinoline] | 2 nM | 352 nM | 1.5 nM | –
20 | c1cc(OCC2CCNCC2)c2nc(-c3nnc4ccccn34)ccc2c1 [Example 14, 2-([1,2,4]Triazolo[4,3-a]pyridin-3-yl)-8-(piperidin-4-ylmethoxy)quinoline] | 11 nM | 562 nM | 2 nM | –
21 | OCC(O)COc1cccc2ccc(-c3nnc4ccccn34)nc12 (stereo not drawn) [Example 62, 3-(2-([1,2,4]triazolo[4,3-a]pyridin-3-yl)quinolin-8-yloxy)propane-1,2-diol] | 262 nM | 1720 nM | 34 nM | –
22 | c1cc(OC2CCCNCC2)c2nc(-c3nnc4ccccn34)ccc2c1 (single isomer, unassigned) [Example 127, 2-([1,2,4]triazolo[4,3-a]pyridin-3-yl)-8-(azepan-4-yloxy)quinoline] | 6.8 nM | 438 nM | 4.8 nM | –

Now from value to molecule, other results behind:

Row | IC50 (recombinant rat PIM-3; read-out: PIM-3 IC50) | IC50 [1, 5] | IC50 (PIM-1; 35 μM ATP, 0.25 nM PIM-1) | Compound | further results
23 | 19 nM | 413 nM | 4 nM | CCC(Oc1cccc2ccc(-c3nnc4ccccn34)nc12)[C@H](CC)CN (stereo partly drawn) [Example 31, (2R)-3-(2-([1,2,4]triazolo[4,3-a]pyridin-3-yl)quinolin-8-yloxy)-2-ethylpentan-1-amine] | –
24 | 155 nM | 10000 nM | 32 nM | CC(C)(C)OC(=O)NCCCNc1cccc2ccc(-c3nnc4ccccn34)nc12 [Example 6, tert-Butyl 3-(2-([1,2,4]triazolo[4,3-a]pyridin-3-yl)quinolin-8-ylamino)propylcarbamate] | –
25 | 3 nM | 69 nM | 0.95 nM | CC1(COc2cccc3ccc(-c4nnc5ccccn45)nc23)CCNCC1 [Example 67, 2-([1,2,4]triazolo[4,3-a]pyridin-3-yl)-8-((4-methylpiperidin-4-yl)methoxy)quinoline dihydrochloride] | –
26 | 24 nM | 502 nM | 8 nM | Fc1cc(O[C@H]2CCNC[C@H]2F)c2nc(-c3nnc4ccccn34)ccc2c1 (relative stereo) [Example 88, 2-([1,2,4]triazolo[4,3-a]pyridin-3-yl)-6-fluoro-8-((cis)-3-fluoropiperidin-4-yloxy)quinoline] | –
27 | 23.5 nM | 1000 nM | 17.5 nM | Cc1ccn2c(-c3ccc4cccc(OC5CCNCCC5F)c4n3)nnc2c1 (single isomer, unassigned) [Example 122, 8-((cis-4,5)-5-fluoroazepan-4-yloxy)-2-(7-methyl-[1,2,4]triazolo[4,3-a]pyridin-3-yl)quinoline] | –
28 | 35 nM | 1040 nM | 5 nM | NCCCNc1cccc2ccc(-c3nnc4ccccn34)nc12 [Example 7, N1-(2-([1,2,4]Triazolo[4,3-a]pyridin-3-yl)quinolin-8-yl)propane-1,3-diamine] | –
29 | 10 nM | 126 nM | 1.3 nM | CCC1(COc2cccc3ccc(-c4nnc5ccccn45)nc23)CCNCC1 [Example 68, 2-([1,2,4]triazolo[4,3-a]pyridin-3-yl)-8-((4-ethylpiperidin-4-yl)methoxy)quinoline dihydrochloride] | –
30 | 13 nM | 318 nM | 3 nM | CCC(Oc1cccc2ccc(-c3nnc4ccccn34)nc12)[C@@H](CC)CN (stereo partly drawn) [Example 30, (2S)-3-(2([1,2,4]triazolo[4,3-a]pyridin-3-yl)quinolin-8-yloxy)-2-ethylpentan-1-amine] | –
